Measured values reported in US9315494B2, “Alkyl-amide-substituted pyridyl compounds useful as modulators of IL-12, IL-23 and/or IFNα responses” (Bristol-Myers Squibb Company, priority 2012, dated 2016).
Where two headings read alike, the source gives them in different places.

Columns and labels:
[1] = test system: IL-23-stimulated STAT-dependent luciferase reporter in Kit225 T cells; experiment: Kit225 T cell assay, IL-23 stimulated STAT-dependent luciferase reporter; assay type: cell-based, human
Procedure, shortened: (§1)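 Kit225 T cells carrying a stably integrated STAT-luciferase reporter, in RPMI with 10% heat-inactivated FBS, were stimulated with 20 ng/mL IL-23 or 200 U/mL IFNα for 5-6 h. Readout was luminescence from the luciferase reporter.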

[2] = test system: IFNα-stimulated STAT-dependent luciferase reporter in Kit225 T cells; experiment: Kit225 T cell assay, IFNα stimulated STAT-dependent luciferase reporter; assay type: cell-based, human
Procedure, shortened: as §1

[3] = Homo sapiens, KIT225, read-out: IL23 (Kit225 T Cell Inhibition Data)
[4] = Homo sapiens, KIT225, read-out: IFNα (Kit225 T Cell Inhibition Data)
[5] = Kit225 T cells, 20 ng/mL human recombinant IL-23, 5-6 hours, luciferase, read-out: IL23 (Kit225 T Cell Inhibition Data)
[6] = Kit225 T cells, 200 U/mL human recombinant IFNα, 5-6 hours, luciferase, read-out: IFNα (Kit225 T Cell Inhibition Data)

SMILES | IC50 [1, 5] | IC50 [2, 6] | IC50 [1, 3] | IC50 [2, 4]
CNC(=O)c1cnc(Nc2ccc(F)cn2)cc1Nc1ccc(C#N)cc1S(C)(=O)=O [Example 310] |  |  | 1080 nM | 590 nM
CNC(=O)c1cnc(Nc2ccc(F)cn2)cc1Nc1ccccc1S(C)(=O)=O [Example 1] | 98.5 nM | 70 nM |  | 
CNC(=O)c1cnc(Nc2ccc(F)cn2)cc1Nc1ccc(F)cc1S(C)(=O)=O [Example 13] | 257 nM | 120 nM |  | 
CNC(=O)c1cnc(Nc2cnccn2)cc1Nc1ccccc1S(C)(=O)=O [Example 38] | 550 nM | 370 nM |  | 
CNC(=O)c1cnc(Nc2cccc(-c3ccccc3)n2)cc1Nc1ccc(Cl)cc1OC [Example 116] | 2190 nM | 750 nM |  | 
CNC(=O)c1cnc(Nc2cccc(C)n2)cc1Nc1ccccc1C(N)=O [Example 67] | 263 nM | 140 nM |  | 
CNC(=O)c1cnc(Nc2cc(F)ccn2)cc1Nc1ccccc1S(C)(=O)=O [Example 23] | 115 nM | 90 nM |  | 
CNC(=O)c1cnc(Nc2cc(C(F)(F)F)ccn2)cc1Nc1ccccc1C(N)=O [Example 91] | 567 nM | 420 nM |  | 
CNC(=O)c1cnc(Nc2ccc(N3CCOC3=O)cn2)cc1Nc1ccc(Cl)cc1OC [Example 105] | 386 nM | 190 nM |  | 
CNC(=O)c1cnc(Nc2ccc(-n3cc(F)ccc3=O)cn2)cc1Nc1ccc(Cl)cc1OC [Example 106] | 439 nM | 180 nM |  | 
CNC(=O)c1cnc(Nc2ccc(F)cn2)cc1Nc1ccc(Cl)cc1OC [Example 99] | 479 nM | 310 nM |  | 
CNC(=O)c1cnc(Nc2cccc(C)n2)cc1Nc1cc(F)cc(F)c1OC [Example 132] | 187 nM | 120 nM |  | 
CNC(=O)c1cnc(Nc2ncccc2C)cc1Nc1ccccc1C(N)=O [Example 83] | 5720 nM | 6940 nM |  | 
CNC(=O)c1cnc(Nc2cc(C)c(C#N)c(C)n2)cc1Nc1cc(F)cc(F)c1OC [Example 140] | 281 nM | 120 nM |  | 
CNC(=O)c1cnc(Nc2ccc(-n3ccccc3=O)cn2)cc1Nc1ccc(Cl)cc1OC [Example 98] | 480 nM | 280 nM |  | 
CNC(=O)c1cnc(Nc2cc(C)c(F)cn2)cc1Nc1cccc(-c2ncnn2C)c1OC [Example 385] |  |  | 70 nM | 20 nM
CNC(=O)c1cnc(Nc2cc(C)ccn2)cc1Nc1cc(F)ccc1S(C)(=O)=O [Example 56] | 120 nM | 50 nM |  | 
CNC(=O)c1cnc(Nc2ccc(S(=O)(=O)N(C)C)cn2)cc1Nc1ccccc1C(N)=O [Example 88] | 2860 nM | 890 nM |  | 
CNC(=O)c1cnc(Nc2cnccn2)cc1Nc1ccc(F)cc1S(C)(=O)=O [Example 39] | 1480 nM | 1540 nM |  | 
CNC(=O)c1cnc(Nc2cc(C#N)ccn2)cc1Nc1ccccc1S(C)(=O)=O [Example 5] | 82.2 nM | 50 nM |  | 
CNC(=O)c1cnc(Nc2cccc(C(F)(F)F)n2)cc1Nc1ccccc1S(C)(=O)=O [Example 16] | 180 nM | 100 nM |  | 
CNC(=O)c1cnc(Nc2cc(C)nc(C)n2)cc1Nc1cccc(-c2nc(C)n(CC(F)(F)F)n2)c1OC [Example 370] |  |  | 30 nM | 30 nM

Further lines, with some results ahead:

IC50 [1, 5] | IC50 [2, 6] | SMILES | IC50 [1, 3] | IC50 [2, 4]
310 nM | 260 nM | CCOc1ccc(OCC)c(Nc2cc(Nc3ccc(N4CCOCC4)cn3)ncc2C(=O)NC)c1 [Example 229] |  | 
1870 nM | 1310 nM | CCc1ccc(Nc2cc(Nc3ccc(N4CCOCC4)cn3)ncc2C(=O)NC)cc1 [Example 213] |  | 
450 nM | 130 nM | CNC(=O)c1cnc(Nc2ccn(C(C)C)n2)cc1Nc1ccccc1S(C)(=O)=O [Example 442] |  | 
2930 nM | 2010 nM | CNC(=O)c1cnc(Nc2ccc(N3CCOCC3)cn2)cc1Nc1ccccc1F [Example 214] |  | 
4600 nM | 3240 nM | CNC(=O)c1cnc(Nc2ccc(N3CCOCC3)cn2)cc1Nc1ccc(F)cc1O [Example 227] |  | 
320 nM | 210 nM | CNC(=O)c1cnc(Nc2cc(C)c(C)nn2)cc1Nc1ccccc1S(C)(=O)=O [Example 415] |  | 
3000 nM | 3630 nM | CNC(=O)c1cnc(Nc2ccc3ccccc3n2)cc1NC1CCCC1(C)F (centres unmarked) [Example 284] |  | 
5090 nM | 2810 nM | CNC(=O)c1cnc(Nc2ccc(N3CCOCC3)cn2)cc1Nc1c(F)cccc1OC [Example 219] |  | 
40 nM | 30 nM | CNC(=O)c1cnc(Nc2cc(C)nc(C)n2)cc1Nc1cccc(-c2ncn(CC(F)(F)F)n2)c1OC [Example 380] |  | 
1340 nM | 1170 nM | CNC(=O)c1cnc(Nc2cc(C(N)=O)ccn2)cc1Nc1cccc(F)c1OC [Example 276] |  | 
1680 nM | 860 nM | CNC(=O)c1cnc(Nc2ccc(F)cn2)cc1Nc1ccccc1SC(F)(F)F [Example 210] |  | 
504 nM | 250 nM | CNC(=O)c1cnc(Nc2ccc(F)cn2)cc1Nc1ccc(C(=O)N2CCCC2)cc1OC [Example 248] |  | 
1080 nM | 670 nM | CNC(=O)c1cnc(Nc2ccc(F)cn2)cc1Nc1ccccc1C(=O)N(C)C [Example 251] |  | 
3070 nM | 3580 nM | CNC(=O)c1cnc(Nc2ccc(F)cn2)cc1Nc1ccc(CCO)cc1 [Example 191] |  | 
270 nM | 240 nM | CNC(=O)c1cnc(Nc2cc(C(=O)N(C)C)ccn2)cc1Nc1cccc(F)c1OC [Example 277] |  | 
4440 nM | 2100 nM | CNC(=O)c1cnc(Nc2ccc(Cl)cn2)cc1Nc1ccc(F)cc1OC [Example 158] |  | 
30 nM | 30 nM | CCNC(=O)c1cccc(Nc2cc(Nc3cc(C)c(F)cn3)ncc2C(=O)NC)c1OC [Example 355] |  | 
568 nM | 700 nM | CNC(=O)c1cnc(Nc2cc(C(N)=O)ccn2)cc1Nc1ccc(F)c(F)c1OC [Example 256] |  | 
100 nM | 50 nM | CNC(=O)c1cnc(Nc2ccc(OC)cn2)cc1Nc1ccccc1S(C)(=O)=O [Example 434] |  | 
3730 nM | 3570 nM | CNC(=O)c1cnc(Nc2ccc(C(F)(F)F)cn2)cc1NC1CCCC1C(N)=O (centres unmarked) [Example 291] |  | 
2530 nM | 560 nM | CNC(=O)c1cnc(Nc2ccc(F)cn2)cc1Nc1ccc(C(=O)N(C)C)cc1S(C)(=O)=O [Example 306] |  | 
20 nM | 10 nM | CNC(=O)c1cnc(Nc2cc(C)c(F)cn2)cc1Nc1cccc(-c2nnc(C)o2)c1OC [Example 359] |  | 
742 nM | 410 nM | CNC(=O)c1cnc(Nc2ccc(N3CCCC3=O)cn2)cc1Nc1ccc(F)cc1OCF [Example 142] |  | 
10 nM | 10 nM | CNC(=O)c1cnc(Nc2cc(C)c(F)cn2)cc1Nc1cccc(-c2nnc(C)[nH]2)c1OC [Example 364, 6-((5-fluoro-4-methylpyridin-2-yl)amino)-4-((2-methoxy-3-(5-methyl-4H-1,2,4-triazol-3-yl)phenyl)amino)-N-methylnicotinamide] |  | 
902 nM | 500 nM | CNC(=O)c1cnc(Nc2ccc(F)cn2)cc1Nc1ccc(C(=O)N2CCOCC2)cc1OC [Example 241] |  | 
20 nM | 10 nM | [2H]C([2H])([2H])NC(=O)c1cnc(Nc2cc(CO)ccn2)cc1Nc1cccc(-c2csc(C)n2)c1OC [Example 405] |  | 
170 nM | 350 nM | CNC(=O)c1cnc(Nc2cc(OC)ncn2)cc1Nc1ccccc1S(C)(=O)=O [Example 419] |  | 
